d = 2'-deoxy (DNA)
What was measured:
[1] = system: hOC promoter; test: hOC promoter-luciferase reporter activity in transfected cells; type: cell-based, human; details: C4-2B cells, 16 h
Source text: Plasmid Construction. Genomic DNA was used in the PCR of the 0.8-kb hOC promoter inserting KpnI and XhoI sites, subsequently cloned into pGL3-Basic-luciferase reporter vector (Promega, Madison, Wis.) as described before (9). The deletion constructs, ΔA [374 bp upstream of AP1/VDRE (AV) element], ΔTst-1 (POU-factor Tst-1/Oct-6 binding site), ΔCRE (cAMP-responsive element) and ΔIRF-1 (interferon regulatory factor-i binding site) in hOC promoter/pGL3 were generated by recombinant PCR technique. The point mutation plasmids in CRE (from -643 to -636 in hOC promoter, 5′-[…]-3′) were constructed with a QuikChange Site-Directed Mutagenesis Kit (Stratagene). The mutation constructs (see below) are one-point substitution mutants, Mut1 (-642 G→T), Mut2 (-641 A→C), Mut3 (-640 C→A), Mut4 (-639 C→A) and Mut5 (-638 T→G), a two-point substitution mutant, Mut6 (-640 and -639 CC→AA), and a two-point deletion construct, Mut7 (-640 and -639 CC→XX). The 1.5-kb hBSP promoter construct prepared in the pGL3-luciferase reporter vector has been described previously (36). The single deletion constructs ΔCRE1 (-79 to -72) and ΔCRE2 (-674 to -667), and a double deletion construct ΔCRE2/CRE1 in the hBSP promoter/pGL3-luciferase plasmid were generated by recombinant PCR technique. All plasmid constructs were confirmed by DNA sequencing.
Transfection and Luciferase Activity Assay. Cells were trypsinized and seeded at a density of 1.5×10^5 cells/well (LNCaP, C4-2B, DU145 and ARCaP) and 1.0×10^5 cells/well (PC3 and MG63) in 12-well plates 24 h before transfection. Plasmid DNAs were introduced into cells by complexing with a commercial reagent DOTAP (Roche Molecular Biochemicals) according to the manufacturer's protocol. Each transfection reaction contained 1.25 μg of tested DNA constructs and 0.25 μg of the transfection efficiency control CMV promoter-driven β-galactosidase plasmid DNA. After 6 h transfection, DNA-liposome mixtures were replaced by fresh T-medium or CM. Tansfected cells were harvested and lysed in 1× Reporter Lysis buffer (Promega) after 36 h additional incubation. Cell lysates were vortexed for 15 s and spun for 10 min. For luciferase activity assay, 20 μl of the lysate supernatant was mixed with 100 μl of the luciferase substrate (Promega) and detected by a luminometer (Monolight 3010, luminometer PharMingen, San Diego, Calif.). For β-galactosidase activity assay, 100 μl of the supernatant was mixed with 100 μl of 2×β-galactosidase substrate [200 mM sodium phosphate buffer, pH 7.3, 2 mM MgCl2, 100 mM β-mercaptoethanol and 1.33 mg/ml o-nitrophenyl-β-D-galactopyranoside (ONPG)], and incubated at 37° C. for 30 min. β-galactosidase activity was detected by Microplate spectrophotometer (Molecular Devices Corp., Sunnyvale, Calif.) at 405 nm wavelength. Data were presented as normalized luciferase activity (means±standard deviations), defined as luciferase activity normalized to internal control β-galactosidase activity for transfection efficiency. All studies were performed in three independent experiments with duplicate assays.

[2] = system: hBSP promoter; test: hBSP promoter-luciferase reporter activity in transfected cells; type: cell-based, human; details: C4-2B cells; db cAMP 10^−6 to 10^−3 M, FSK 10^−8 to 10^−5 M; 16 h; concentration-dependent
Source text: Plasmid Construction. Genomic DNA was used in the PCR of the 0.8-kb hOC promoter inserting KpnI and XhoI sites, subsequently cloned into pGL3-Basic-luciferase reporter vector (Promega, Madison, Wis.) as described before (9). The deletion constructs, ΔA [374 bp upstream of AP1/VDRE (AV) element], ΔTst-1 (POU-factor Tst-1/Oct-6 binding site), ΔCRE (cAMP-responsive element) and ΔIRF-1 (interferon regulatory factor-i binding site) in hOC promoter/pGL3 were generated by recombinant PCR technique. The point mutation plasmids in CRE (from -643 to -636 in hOC promoter, 5′-[…]-3′) were constructed with a QuikChange Site-Directed Mutagenesis Kit (Stratagene). […]
Transfection and Luciferase Activity Assay. […] For luciferase activity assay, 20 μl of the lysate supernatant was mixed with 100 μl of the luciferase substrate (Promega) and detected by a luminometer (Monolight 3010, luminometer PharMingen, San Diego, Calif.). For β-galactosidase activity assay, 100 μl of the supernatant was mixed with 100 μl of 2×β-galactosidase substrate [200 mM sodium phosphate buffer, pH 7.3, 2 mM MgCl2, 100 mM β-mercaptoethanol and 1.33 mg/ml o-nitrophenyl-β-D-galactopyranoside (ONPG)], and incubated at 37° C. for 30 min. β-galactosidase activity was detected by Microplate spectrophotometer (Molecular Devices Corp., Sunnyvale, Calif.) at 405 nm wavelength. […]

[3] = system: OC mRNA; test: Semi-quantitative RT-PCR of endogenous OC mRNA; type: cell-based, human; details: FSK 10^−6 M, 12 h
Experimental: (§1) Reverse Transcription-Polymerase Chain Reaction (RT-PCR) Analysis. Total RNA was isolated from confluent monolayers of cells using RNAZol B (Teltest Inc., Friendswood, Tex.). Five μg of total RNA was used as template and 0.15 μg of random hexanucleotide primers were added for reverse transcription and amplification in a reaction volume of 20 μl, according to the manufacturer's instruction (Invitrogen, Carlsbad, Calif.). After RT reaction, 3-5 μl of the 1st-strand cDNA was used for PCR with a PTC-100 programmable Thermal Controller (MJ Research Inc.). The oligonucleotide primer sets used for PCR analysis of cDNA are: hOC, 5′-[…]-3′ (forward) and 5′-[…]-3′ (reverse); hBSP, 5′-[…]-3′ (forward) and 5′-[…]-3′ (reverse); and glyceraldehyde phosphate dehydrogenase (GAPDH), 5′-[…]-3′ (forward) and 5′-[…]-3′ (reverse), respectively. The thermal profile for hOC amplification is 30 cycles starting with denaturation 1 min at 94° C., followed by 1 min of annealing at 55° C. and 1 min of extension at 72° C. For hBSP amplification the thermal profile is 35 cycles starting with denaturation 1 min at 94° C., followed by 30 s of annealing at 48° C. and 40 s of extension at 72° C. The program for GAPDH amplification is 25 cycles starting with denaturation 30 s at 94° C., followed by 30 s of annealing at 60° C. and 1 min of extension at 72° C. The RT-PCR products were analyzed by 1.2% agarose gel electrophoresis. Quantity one-4.1.1 Gel Doc gel documentation software (Bio-Rad) or NIH image were used for quantification of hOC and hBSP mRNA expression normalized by GAPDH mRNA expression.

[4] = system: BSP mRNA; test: Semi-quantitative RT-PCR of endogenous BSP mRNA; type: cell-based, human; details: FSK 10^−6 M, 12 h
Experimental: as §1

[5] = system: human prostate cancer cell lines; test: In vitro cell proliferation assay, prostate cancer cells; type: cell-based; details: for cell proliferation: Neo and b2M-overexpressed C4-2B clones, siRNA
Experimental: LNCaP, C4-2B, DU145, PC3, MG63 and ARCaP cell lines were seeded in 96-well plates in T-medium containing 5% FBS, respectively. After 24 h incubation, media were replaced by fresh, serum-free T-medium and incubated for an additional 24 h. […] Cell numbers were measured every 24 h using CellTiter 96® AQueous One Solution Cell Proliferation Assay (Promega, Madison, Wis.).

[6] = system: b2M; test: b2M expression in C4-2B clones after siRNA; type: cell-based, human; details: Neo and b2M-overexpressed C4-2B clones
Experimental: Total RNA was isolated from the confluent monolayer of cells using RNAZol B (Teltest Inc., Friendswood, Tex.). The total RNA was used as template for RT according to the manufacturer's instruction (Invitrogen). […] RT-PCR products were analyzed by 1.2% agarose gel electrophoresis.
(§2) Western blotting was performed using the NOVEX system (Invitrogen). […] Detection of protein bands was performed with ECL Western Boltting Detection Reagents (Amersham Biosciences Corp.).
The β2M- and control scramble-siRNA sequences were 5′-[…](dT)(dT)-3′ and 5′-[…](dT)(dT)-3′, respectively. For RNA delivery system, we used cationic liposome formulation, termed SN {Zou, 2002#68} to deliver β2M- and scramble-siRNA into cell lines or mice. The ratio of siRNA (μg) to SN (μl) was 1:24. […] To assay of anti-tumor activity of β2M-siRNA therapeutic efficacy, the real-time bioluminescence image by the CCD camera cryogenically cooled IVIS system with analysis software (Xenogen Corp., Alameda Calif.) (Ref) and serum PSA levels were used to monitored PC3-Luc and C4-2 tumor burden in nude mice.

[7] = system: PC3-Luc tumor; test: Subcutaneous bone powder PC3-Luc tumors, intratumoral siRNA-liposome, bioluminescence imaging; type: in vivo, athymic nu/nu mice; details: intratumoral 0.8 μg siRNA three-time per week, four weeks, 28 days
Source text: (§3) The β2M- and control scramble-siRNA sequences were 5′-[…](dT)(dT)-3′ and 5′-[…](dT)(dT)-3′, respectively. For RNA delivery system, we used cationic liposome formulation, termed SN {Zou, 2002#68} to deliver β2M- and scramble-siRNA into cell lines or mice. The ratio of siRNA (μg) to SN (μl) was 1:24. To test prostate tumor growth inhibition by β2M-siRNA, four weeks old male athymic nu/nu mice were inoculated into the subcutaneous space of the chest regions with 2×10^6 cells of PC3-Luc or C4-2 mixed with 20 mg of bone powder (kindly provided by Dr. A. H. Reddi, University of California, Davis, Sacramento, Calif.) and 35 μl of Matrigel matrix (BD Bioscience, Bedford Mass.), respectively. Three (PC3-Luc) or four (C4-2) weeks later, the tumor-bearing mice were randomly divided into two groups. The mice in the treatment group received intratumoral injection of SN-β2M-siRNA for three-time per week continuously four weeks, at a dose of 0.8 μg of siRNA mixed with 19.2 μl of SN for each mouse. The control group injected with the same dose of SN-scramble-siRNA. To assay of anti-tumor activity of β2M-siRNA therapeutic efficacy, the real-time bioluminescence image by the CCD camera cryogenically cooled IVIS system with analysis software (Xenogen Corp., Alameda Calif.) (Ref) and serum PSA levels were used to monitored PC3-Luc and C4-2 tumor burden in nude mice.

[8] = system: C4-2-Luc tumor; test: Subcutaneous bone powder C4-2-Luc tumors, intratumoral siRNA-liposome, serum PSA; type: in vivo, athymic nu/nu mice; details: intratumoral 0.8 μg siRNA three-time per week, four weeks, 28 days
Source text: as §3

[9] = system: AR; test: Western blot of AR in siRNA-infected C4-2B cells; type: cell-based, human; details: retrovirally infected C4-2B cells
Experimental: (§4) FIG. 14. Western blot analysis of parental C4-2B (P), b2M-siRNA (siRNA) and scramble-siRNA (Scramble) retrovirally infected cells. Note AR and PSA expression were abolished by b2M-siRNA in C4-2B cells. EFIa was used as loading control.
as §2

[10] = system: PSA; test: Western blot of PSA in siRNA-infected C4-2B cells; type: cell-based, human; details: retrovirally infected C4-2B cells
Experimental: as §4, §2

[11] = system: C4-2B cells; test: Adhesion assay on ECM-coated 96-well plates; type: cell-based, human; details: β2M siRNA vs scramble siRNA
Source text: FIG. 13. Adhesion assay of b2M-siRNA and scramble-siRNA infected C4-2B cells using 96-well plate pre-coated with Col I, LM, FN and Col IV. BSA was used as control (Con). *, p<0.05, **, p<0.005.
Cell attachment to BSA coated wells served as an internal control (Con).

CCCC(=O)Nc1ncnc2c1ncn2[C@@H]1O[C@@H]2COP(=O)(O)O[C@H]2[C@H]1OC(=O)CCC [db cAMP, dibutyryl 3′,5′-cyclic AMP]
hOC promoter activity, effect of PKA pathway activators ([1]; db cAMP 10^−6 to 10^−3 M, FSK 10^−8 to 10^−5 M, concentration-dependent): stimulated
hBSP promoter activity, effect of PKA pathway activators [2]: stimulated

C=C[C@@]1(C)CC(=O)[C@]2(O)[C@@]3(C)[C@@H](O)CCC(C)(C)[C@@H]3[C@H](O)[C@H](OC(C)=O)[C@@]2(C)O1 [FSK, forskolin]
steady-state level of OC mRNA, fold elevation ([3]; C4-2B cells): 7.8 fold
steady-state level of OC mRNA, fold elevation ([3]; LNCaP cells): 5.2 fold
level of BSP mRNA, fold increase ([4]; C4-2B cells): 5.4 fold
level of BSP mRNA, fold increase ([4]; LNCaP cells): 3.2 fold

5′-UUCAUGUGUCUGUGGUGUU(dT)(dT)-3′ (siRNA; RNA, 3' dTdT, backbone not given here; scramble control, delivered in cationic liposome formulation SN) [scramble-siRNA]
cell proliferation [5]: did not affect
b2M expression [6]: did not affect
growth of pre-established PC3-Luc tumors, Luc-imaging (BLI) [7]: not
growth of pre-established C4-2-Luc tumors, serum PSA [8]: not
AR protein expression [9]: not
PSA protein expression [10]: not

5′-UUGCUAUGUGUCUGGGUUU(dT)(dT)-3′ (siRNA; RNA, 3' dTdT, backbone not given here; delivered in cationic liposome formulation SN) [b2M-siRNA]
cell proliferation [5]: inhibited
growth of prostate cancer cells in vitro and tumor growth in bone on blocking β2M signaling ([5]; preliminary investigations): greatly attenuated
b2M expression [6]: inhibited
cell attachment to collagen I (Col I) [11]: no significant difference
cell attachment to collagen IV (Col IV) [11]: decreased attachment
cell attachment to fibronectin (FN) [11]: no significant difference
cell attachment to laminin (LM) [11]: no significant difference
AR protein expression [9]: abolished
PSA protein expression [10]: abolished

CCCCCCCCCCCCCC(=O)O[C@@H]1[C@@H](C)[C@@]2(O)[C@@H](C=C(CO)C[C@]3(O)C(=O)C(C)=C[C@@H]23)[C@@H]2C(C)(C)[C@]12OC(C)=O [PMA, phorbol 12-myristate 13-acetate]
hOC promoter activity, induction by PKC pathway activator ([1]; PMA 10^−6 M): induced hOC promoter activity to a lesser extent
